Data published in patent EP0241291B1, “Aryl-substituted naphthyridine and pyridopyrazine derivatives” (SCHERING CORPORATION, priority 1986, dated 1987).

Legend:
[1] = tested on: anaphylactic bronchospasm in sensitized guinea pigs; assay: Inhibition of anaphylactic bronchospasm in sensitized guinea pigs with antigen-induced bronchoconstriction; assay type: in vivo, male Hartley guinea pigs; details: Cavia porcellus, po; for ED50: 2 hours before challenge with ovalbumin, sensitized guinea pigs, read-out: ED50 (p.o.)-in anaphylactic bronchospasm test
Procedure: The compounds of this invention may be employed as anti-allergy agents in the treatment of, for example, asthma, allergic or seasonal rhinitis, and/or chronic bronchitis. The anti-allergy method of this invention is identified by tests which measure a compound's inhibition of anaphylactic bronchospasm in sensitized guinea pigs having antigen induced broncho-constriction.
In one such test procedure, male Hartley guinea pigs (250-300 g) are sensitized with 5 mg ovalbumin injected i.p. and 5 mg injected s.c. in 1 ml saline on day 1 and 5 mg ovalbumin injected i.p. on day 4. The sensitized animals are used 3-4 weeks later at which time they weigh 450-500 g.
The sensitized guinea pigs are fasted overnight and the following morning are anesthetized with 0.9 ml/kg i.p. of dialurethane (0.1 g/ml diallybarbituric acid, 0.4 g/ml ethylurea and 0.4 g/ml urethane). The trachea are cannulated and the animals are ventilated by a Harvard® rodent respirator at 50 strokes/minute with a stroke volume of 5 ml. A side arm to the tracheal cannula is connected to a pressure transducer (Harvard) to obtain a continuous measure of intratracheal pressure which is recorded on a polygraph (Harvard). The jugular vein is cannulated for the i.v. administration of substances. The animals are challenged with antigen (0.5% ovalbumin) as an aerosol generated from a DeVilbiss® Model 65 ultrasonic nebulizer and delivered through the tracheal cannula for 30 seconds. Bronchoconstriction is measured as the peak increase in intratracheal pressure occurring within 5 minutes after antigen challenge.
The sensitized guinea pigs are injected i.v. with 1 mg/kg propranolol, 5 mg/kg indomethacin and 2 mg/kg mepyramine given together in a volume of 1 ml/kg. Fifteen minutes later the animals are challenged with nebulized ovalbumin. Test compounds are administered orally 2 hours before challenge with ovalbumin. Suppression of anaphylactic bronchospasm is expressed as a percent inhibition of the peak increase in intratracheal pressure by comparison to a vehicle-treated control group.

[2] = tested on: Reversed Passive Arthus Response; assay: Reversed Passive Arthus Response (RPAR), paw volume; assay type: in vivo, Male Lewis inbred albino rats; details: 25 mg/kg p.o. once daily for 3 days, rats; for Percent Inhibition vs. Control at 2 hrs.: paw volume 2 hours post-challenge; for Percent Inhibition vs. Control at 4 hrs.: paw volume 4 hours post-challenge
From the text: The compounds of this invention are also useful for the treatment of inflammation. Thus, they are useful in the treatment of arthritis, bursitis, tendonitis, gout and other physical conditions characterized by inflammation.
Reversed Passive Arthus Response (RPAR) Animals, Materials and Methods
Male Lewis inbred albino rats weighing 180-200 grams obtained from Charles River Breeding Laboratories are used in these experiments. The rats are housed 3 animals/cage and food and water are allowed ad libitum. The animals are numbered 1-3 in each cage and color marked for identification purposes.
All reagents and drugs are prepared just prior to the study. Crystallized and lyophilized bovine serum albumin (BSA), available from Sigma Chemical Company, is solubilized without shaking in cold, sterile, pyrogenfree saline (10 mg/ml). Lyophilized anti-bovine serum albumin (IgG fraction), obtained from Cappel Laboratories, is suspended in sterile distilled water and diluted with cold, pyrogen-free saline (PFS) just prior to use. The final concentration of anti-bovine serum albumin is 0.5. mg/ml of PFS. Both BSA and anti-BSA solutions are iced during use. Drugs are suspended or solubilized in an aqueous solution of methyl cellulose (MC) with an homogenizer just prior to administration.
Groups of animals (6/group) are dosed with drug in MC by gavage once daily for 3 days. The last dose is administered one hour prior to sensitization with BSA. Controls are given MC alone and a drug-standard is usually included in each assay for verification purposes. Drugs are prepared and diluted so as to provide a dose for a 200 gram animal which is equivalent to the mg/kg dose for each experiment. Thus each rat receives an oral dose in a volume of approximately 2.0 cc. One hour after the last dose the animals are lightly anesthetized with ether and "sensitized" by injection of 0.2 ml of PFS containing 1.0 mg of BSA into the penile vein. One hour later, the animals are "challenged" in the right rear paw with subplantar injections of […] PFS containing 0.1 mg of anti-BSA. Immediately after the subplantar injection, the right paw is dipped (up to the lateral maleolus) into the mercury well of a plethysmograph. The volume of mercury displaced is converted to weight and recorded. This value is considered to be the control reading for the animal. Paw volumes are subsequently recorded with a plethysmograph during the development of the inflammation at 2 and 4 hours post-challenge.
Results are expressed by the change in paw volume (Δ paw volume) from the control reading for each animal to that recorded 2 and 4 hours post-challenge. All drug treated groups are compared to the MC control for significant differences with an analysis of variance. Differences from control in drug-treated groups are expressed as percent change from control in Table II.

spleen weight = assay: Splenic atrophy test, decrease in spleen weight; assay type: in vivo; details: BDF₁ mice
Procedure: The immunosuppressive activity of the compounds may also be shown by a decrease in spleen weight after dosing BDF₁ mice orally with the drug for seven (7) consecutive days. The mice are sacrificed on the eighth day. The percent decrease in spleen weight is measured for each dosage level. In this procedure (Compound A) provided a 30% spleen weight decrease at a dosage level of 100 mg/kg.

[3] = tested on: reverse passive Arthus reaction in the pleural cavity of rats; assay: Reverse passive Arthus reaction in the pleural cavity; assay type: in vivo; details: Rattus norvegicus, po, method of Myers et al., read-out: ED₅₀ reverse passive Arthus reaction in the pleural cavity
[4] = tested on: GRAFT VS. HOST REACTION (GVHR); assay: Graft vs. host reaction (GVHR), spleen weight; assay type: in vivo, C57 B1/6XA/J(B6AF1) male mice; details: 10 mg/kg orally for 10 days; GVHR mice
Procedure: To induce a GVHR, C57 B1/6XA/J(B6AF1) male mice were injected intravenously with parental (C57B1/6J) spleen and lymph node cells. The compound 1,2,3,4-tetrahydro-7-phenyl-oxepino[2,3-c][1,8]-naphthyridin-6(7H)-one (Compound A) was then administered orally for 10 days beginning on the day prior to the cell transfer. On the day following the last treatment, the animals were sacrificed, and their spleens were excised and weighed. The enlargement of the spleen of the host is a result of a GVHR. To some extent it is the host's own cells which infiltrate and enlarge the spleen although they do this because of the presence of graft cells reacting against the host. The amount of spleen enlargement, splenonmegaly, is taken as a measure of the severity of the GVHR.
In carrying out the GVHR the animal in the experimental group is injected with parental cells, cells of the same species but of different genotyne, which cause a weight increase of the spleen. […] The effectiveness of Compound A adminstered to the mice in the experimental group is measured by comparing the spleen weight of the untreated and treated GVH animal with that of the syngeneic control. Compound A reduced spleen weight by 61% as compared to the untreated animals at a dose of 10 mg/kg.

SMILES | ED50 [1] [mg/kg] | Percent Inhibition vs. Control at 2 hrs. [2] [%] | Percent Inhibition vs. Control at 4 hrs. [2] [%] | ED30 ([1]; sensitized guinea pigs having antigen-induced bronchoconstriction, read-out: ED₃₀ inhibition of anaphylactic bronchospasm) [mg/kg] | spleen weight decrease (spleen weight; 100 mg/kg orally for seven consecutive days) [%] | ED30 (spleen weight; Mus musculus, oral, seven consecutive days, read-out: ED₃₀ in the splenic atrophy test) [mg/kg] | ED50 [3] [mg/kg] | reduced spleen weight as compared to the untreated animals [4] [%]
O=c1c2c(c3cccnc3n1-c1cccc(Cl)c1)CCCC2 [Compound 1, 5-(3-Chlorophenyl)-7,8,9,10-tetrahydro-benzo[c][1,8]-naphthyridin-6(5H)-one] | 2 | 64 | 30 | – | – | – | – | –
O=c1c2c(c3cccnc3n1-c1ccccc1)CCCCO2 [Compound 4, 1,2,3,4-tetrahydro-7-phenyl-oxepino[2,3-c][1,8]-naphthyridin-6(7H)-one] | 1 | 74 | 25 | ~0.5 | 30 | ~100 | ~4.5 | 61
O=c1c2c(c3cccnc3n1-c1cccc(Cl)c1)CCCCO2 [Compound 3, 7-(3-Chlorophenyl)-1,2,3,4-tetrahydro-oxepino[2,3-c][1,8]-naphthyridin-6(7H)-one] | 5 | – | – | – | – | – | – | –
O=c1c2c(c3cccnc3n1-c1ccccc1)CCCC2 [Compound 2, 7,8,9,10-Tetrahydro-5-phenyl-benzo[c][1,8]-naphthyridin-6-(5H)-one] | 2 | 75 | 29 | – | – | – | – | –
